Data on 28 molecules can be found in patent US9656988B2 (Pharmacyclics LLC, priority 2013, dated 2017).

For this experiment, the target named is BTK (Homo sapiens (Human), UniProt Q06187). The experiment can be described thus: Btk in vitro inhibitory activity (one of Method A TR-FRET, Method B electrophoretic mobility shift, Method C radiometric filter binding). The experiment is classed as biochemical. A general note: Mobility shift assays separate free from complexed probe on a gel.
Setting [1] is: determined using one of the methods of Example 355a, 355b and 355c, read-out: BTK IC50.

The structures appear in SMILES notation. pIC50: −log10 of the molar value. Like-named read-outs stand apart in the source and are kept apart here.

Sequence of BTK (Q06187 whole entry): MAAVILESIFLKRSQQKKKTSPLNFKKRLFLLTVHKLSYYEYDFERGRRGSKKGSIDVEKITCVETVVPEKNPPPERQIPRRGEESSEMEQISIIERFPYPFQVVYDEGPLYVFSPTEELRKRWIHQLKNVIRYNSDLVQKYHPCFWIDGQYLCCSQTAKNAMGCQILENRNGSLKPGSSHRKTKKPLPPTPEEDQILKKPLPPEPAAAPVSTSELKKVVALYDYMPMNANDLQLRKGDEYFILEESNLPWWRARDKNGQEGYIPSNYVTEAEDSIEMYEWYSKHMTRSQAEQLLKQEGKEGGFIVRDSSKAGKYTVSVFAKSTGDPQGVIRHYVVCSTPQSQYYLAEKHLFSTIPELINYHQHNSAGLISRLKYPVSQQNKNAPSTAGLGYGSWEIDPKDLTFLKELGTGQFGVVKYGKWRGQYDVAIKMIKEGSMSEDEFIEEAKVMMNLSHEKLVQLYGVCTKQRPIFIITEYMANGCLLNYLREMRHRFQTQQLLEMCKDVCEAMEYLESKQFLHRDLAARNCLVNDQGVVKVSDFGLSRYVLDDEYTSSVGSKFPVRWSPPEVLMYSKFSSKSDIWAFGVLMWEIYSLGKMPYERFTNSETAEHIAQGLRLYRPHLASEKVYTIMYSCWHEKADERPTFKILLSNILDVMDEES

For orientation: pIC50 means −log10 of the IC50, conventionally taken in molar units. For `CN(C)C(=O)N[C@@H]1CCCN(c2cnc(C(N)=O)c(Nc3ccc(C4(C)CCN(C(=O)N(C)C)CC4)cc3)n2)C1` [Example 223, (R)-3-(4-(1-(dimethylcarbamoyl)-4-methylpiperidin-4-yl)phenylamino)-5-(3-(3,3-dimethylureido)piperidin-1-yl)pyrazine-2-carboxamide], the negative-log IC50 (pIC50) under setting [1] is over 8.00 and the pIC50 (read-out: Btk (IC50)) was over 8.00.

For the molecule `CN(C)C(=O)N[C@@H]1CCCN(c2cnc(C(N)=O)c(Nc3ccc(C4(C)CCN(C5CCCC5)CC4)cc3)n2)C1` [Example 222, (R)-3-(4-(1-cyclopentyl-4-methylpiperidin-4-yl)phenylamino)-5-(3-(3,3-dimethylureido)piperidin-1-yl)pyrazine-2-carboxamide], the negative logarithm of the IC50 (pIC50) under setting [1] was over 8.00 and the pIC50 (read-out: Btk (IC50)) was over 8.00.

For `NC(=O)c1nnc(N2CCC[C@@H](NC(=O)c3ccc(Oc4ccccc4)cc3)C2)nc1Nc1ccc(C(=O)N2CCOCC2)cc1` [Example 96, (R)-5-(4-(morpholine-4-carbonyl)phenylamino)-3-(3-(4-phenoxybenzamido)piperidin-1-yl)-1,2,4-triazine-6-carboxamide], the pIC50 under setting [1] was 7.00 to 8.00.

For `NC(=O)c1nnc(N2CCC[C@@H](NC(=O)c3ccc4ncccc4c3)C2)nc1Nc1ccc(C(=O)N2CCOCC2)cc1` [Example 85, (R)—N-(1-(6-carbamoyl-5-(4-(morpholine-4-carbonyl)phenylamino)-1,2,4-triazin-3-yl)piperidin-3-yl)quinoline-6-carboxamide], the pIC50 runs as follows: (Btk (IC50)) 7.00 to 8.00; under setting [1], 7.00 to 8.00.

For `CCOc1ccc(C(=O)N[C@@H]2CCCN(c3nnc(C(N)=O)c(Nc4ccc(C5=NCCN5C)cc4)n3)C2)cc1` [Example 344, (R)-3-(3-(4-ethoxybenzamido)piperidin-1-yl)-5-(4-(1-methyl-4,5-dihydro-1H-imidazol-2-yl)phenylamino)-1,2,4-triazine-6-carboxamide], the pIC50 under setting [1] was 7.00 to 8.00.

In the case of `N#CC1(C(=O)N[C@@H]2CCCN(c3nnc(C(N)=O)c(Nc4ccc(C(=O)N5CCOCC5)cc4)n3)C2)CC1` [Example 28, (R)-3-(3-(1-cyanocyclopropanecarboxamido)piperidin-1-yl)-5-(4-(morpholine-4-carbonyl)phenylamino)-1,2,4-triazine-6-carboxamide], under setting [1], the pIC50 is 7.00 to 8.00.

For the molecule `CN(C)C/C=C/C(=O)N1CCC[C@@H](N(C)c2cnc(C(N)=O)c(Nc3ccc(C(=O)N4CCOCC4)cc3)n2)C1` [Example 75, (R,E)-5-((1-(4-(dimethylamino)but-2-enoyl)piperidin-3-yl)(methyl)amino)-3-(4-(morpholine-4-carbonyl)phenylamino)pyrazine-2-carboxamide], the pIC50 under setting [1] is over 8.00.

As to `CN1CCN(c2ccc(Nc3nc(N4CCC[C@@H](NC(=O)N5CCCCC5)C4)cnc3C(N)=O)cc2)CC1` [Example 146, (R)-3-(4-(4-methylpiperazin-1-yl)phenylamino)-5-(3-(piperidine-1-carboxamido)piperidin-1-yl)pyrazine-2-carboxamide], the pIC50 is, setting by setting: (Btk (IC50)) 7.00 to 8.00; under setting [1], 7.00 to 8.00.

With `Cc1cc(Nc2nc(N[C@@H]3CCCCN(C(=O)N(C)C)C3)cnc2C(N)=O)sn1` [Example 348, (R)-3-(5-carbamoyl-6-(3-methylisothiazol-5-ylamino)pyrazin-2-ylamino)-N,N-dimethylazepane-1-carboxamide], the pIC50 under setting [1] was 7.00 to 8.00.

For `NC(=O)c1ncc(N2CCC[C@@H](NC(=O)NC3CCOCC3)C2)nc1NC1CCOCC1` [Example 354, (R)-5-(3-(3-(tetrahydro-2H-pyran-4-yl)ureido)piperidin-1-yl)-3-(tetrahydro-2H-pyran-4-ylamino)pyrazine-2-carboxamide], the pIC50 under setting [1] was 5.00 to 6.00.

In the case of `CC1[C@H](NC(=O)C2CC2)CCCN1c1cnc(C(N)=O)c(Nc2ccc(C3CCN(C4CCCC4)CC3)cc2)n1` (stereo in doubt) [Example 349, (R)-3-(4-(1-cyclopentylpiperidin-4-yl)phenylamino)-5-(3-(cyclopropanecarboxamido)-2-methylpiperidin-1-yl)pyrazine-2-carboxamide], under setting [1], the pIC50 is over 8.00.

Regarding `CN(C(=O)N[C@@H]1CCCN(c2cnc(C(N)=O)c(NC3CCCC3)n2)C1)c1ccccc1` [Example 351, (R)-3-(cyclopentylamino)-5-(3-(3-methyl-3-phenylureido)piperidin-1-yl)pyrazine-2-carboxamide], the pIC50 under setting [1] was 5.00 to 6.00.

For `C[C@@H]1[C@H](N2CCN(C)C2=O)CCCN1c1cnc(C(N)=O)c(Nc2ccc(C3(C)CCN(C4CCCC4)CC3)cc2)n1` [Example 253, 3-(4-(1-cyclopentyl-4-methylpiperidin-4-yl)phenylamino)-5-((2R,3R)-2-methyl-3-(3-methyl-2-oxoimidazolidin-1-yl)piperidin-1-yl)pyrazine-2-carboxamide], the pIC50 under setting [1] is over 8.00.

For `NC(=O)c1nnc(N2CCC[C@@H](NC(=O)C3CCCC3)C2)nc1Nc1ccc(C(=O)N2CCOCC2)cc1` [Example 29, (R)-3-(3-(cyclopentanecarboxamido)piperidin-1-yl)-5-(4-(morpholine-4-carbonyl)phenylamino)-1,2,4-triazine-6-carboxamide], the pIC50 under setting [1] is 7.00 to 8.00.

With `NC(=O)c1ncc(N2CC[C@H]3CCN[C@H]3C2)nc1Nc1ccc(C2CCN(C3CCCC3)CC2)cc1` (racemic) [Example 291], the pIC50 under setting [1] was 6.00 to 7.00.

In the case of `NC(=O)c1nnc(N2CCC[C@@H](NC(=O)c3nc4ccccc4s3)C2)nc1Nc1ccc(C(=O)N2CCOCC2)cc1` [Example 94, (R)—N-(1-(6-carbamoyl-5-(4-(morpholine-4-carbonyl)phenylamino)-1,2,4-triazin-3-yl)piperidin-3-yl)benzo[d]thiazole-2-carboxamide], the pIC50 (read-out: Btk (IC50)) is over 8.00.

On to `NC(=O)c1ncc(N2CCC[C@@H](NC(=O)c3ccc4nccn4c3)C2)nc1Nc1ccc(C2CCOCC2)cc1` [Example 325, (R)—N-(1-(5-carbamoyl-6-(4-(tetrahydro-2H-pyran-4-yl)phenylamino)pyrazin-2-yl)piperidin-3-yl)imidazo[1,2-a]pyridine-6-carboxamide], for which the pIC50 was over 8.00 under setting [1] and over 8.00 (read-out: Btk (IC50)).

As to `NC(=O)c1nnc(N2CCC[C@@H](n3ccc4cc(C5CC5)cc(F)c4c3=O)C2)nc1Nc1ccc(C(=O)N2CCOCC2)cc1` [Example 47, (R)-3-(3-(6-cyclopropyl-8-fluoro-1-oxoisoquinolin-2(1H)-yl)piperidin-1-yl)-5-(4-(morpholine-4-carbonyl)phenylamino)-1,2,4-triazine-6-carboxamide], the pIC50 under setting [1] is over 8.00.

Take `CN(C)C(=O)N[C@@H]1CCCN(c2cnc(C(N)=O)c(Nc3ccc(C(C)(C)C#N)cc3)n2)C1` [Example 197, (R)-3-(4-(2-cyanopropan-2-yl)phenylamino)-5-(3-(3,3-dimethylureido)piperidin-1-yl)pyrazine-2-carboxamide]: the pIC50 under setting [1] was over 8.00 and the pIC50 (read-out: Btk (IC50)) was over 8.00.

In the case of `CCC(=O)N1CCC(c2ccc(Nc3nc(N4CCC[C@@H](NC(=O)N5CCCCC5)C4)nnc3C(N)=O)cc2)CC1` [Example 339, (R)-3-(3-(piperidine-1-carboxamido)piperidin-1-yl)-5-(4-(1-propionylpiperidin-4-yl)phenylamino)-1,2,4-triazine-6-carboxamide], the pIC50 under setting [1] was over 8.00 and the pIC50 (read-out: Btk (IC50)) is over 8.00.

As to `CCC(=O)N1CCC[C@@H](Nc2nnc(C(N)=O)c(Nc3ccc(C(=O)N4CCOCC4)cc3)n2)C1` [Example 63, (R)-5-(4-(morpholine-4-carbonyl)phenylamino)-3-(1-propionylpiperidin-3-ylamino)-1,2,4-triazine-6-carboxamide], the pIC50 under setting [1] was over 8.00.

With `NC(=O)c1nnc(N2CCC[C@@H](NC(=O)c3nc4ccccc4o3)C2)nc1Nc1ccc(C(=O)N2CCOCC2)cc1` [Example 97, (R)—N-(1-(6-carbamoyl-5-(4-(morpholine-4-carbonyl)phenylamino)-1,2,4-triazin-3-yl)piperidin-3-yl)benzo[d]oxazole-2-carboxamide], the negative-log IC50 (pIC50) under setting [1] is 7.00 to 8.00 and the pIC50 (read-out: Btk (IC50)) is 7.00 to 8.00.

In the case of `CCN(C)C(=O)N[C@@H]1CCCN(c2cnc(C(N)=O)c(Nc3ccc(C4CCN(C5CCCC5)CC4)cc3)n2)C1` [Example 297, (R)-3-(4-(1-cyclopentylpiperidin-4-yl)phenylamino)-5-(3-(3-ethyl-3-methylureido)piperidin-1-yl)pyrazine-2-carboxamide], the pIC50 runs as follows: under setting [1], over 8.00; (read-out: Btk (IC50)) over 8.00.

Take `CN(C)C(=O)N[C@@H]1CCCN(c2cnc(C(N)=O)c(Nc3ccccc3)n2)C1` [Example 180, (R)-5-(3-(3,3-dimethylureido)piperidin-1-yl)-3-(phenylamino)pyrazine-2-carboxamide]: the pIC50 under setting [1] was 6.00 to 7.00.

Regarding `CN(C)C(=O)N[C@@H]1CCCN(c2nnc(C(N)=O)c(Nc3ccc(C(=O)N4CCOCC4)cc3)n2)C1` [Example 81, (R)-3-(3-(3,3-dimethylureido)piperidin-1-yl)-5-(4-(morpholine-4-carbonyl)phenylamino)-1,2,4-triazine-6-carboxamide], the pIC50 runs as follows: (Btk (IC50)) 7.00 to 8.00; under setting [1], 7.00 to 8.00.

`NC(=O)c1nnc(N2CCC[C@@H](NC(=O)c3cc(C4CC4)on3)C2)nc1Nc1ccc(C(=O)N2CCOCC2)cc1` [Example 95, (R)—N-(1-(6-carbamoyl-5-(4-(morpholine-4-carbonyl)phenylamino)-1,2,4-triazin-3-yl)piperidin-3-yl)-5-cyclopropylisoxazole-3-carboxamide]: the pIC50 by setting is: under setting [1], 7.00 to 8.00; (read-out: Btk (IC50)) 7.00 to 8.00.

Turning to `CN1CCCN([C@@H]2CCCN(c3cnc(C(N)=O)c(Nc4ccc(C5(C)CCN(C6CC6)CC5)cc4)n3)C2)C1=O` [Example 285, (R)-3-(4-(1-cyclopropyl-4-methylpiperidin-4-yl)phenylamino)-5-(3-(3-methyl-2-oxotetrahydropyrimidin-1(2H)-yl)piperidin-1-yl)pyrazine-2-carboxamide], the pIC50 reads like this: under setting [1], over 8.00; (read-out: Btk (IC50)) over 8.00.

Turning to `NC(=O)c1nnc(N2CCC[C@@H](NC(=O)C3CCN(C4CC4)CC3)C2)nc1Nc1ccc(C(=O)N2CCOCC2)cc1` [Example 32, (R)-3-(3-(1-cyclopropylpiperidine-4-carboxamido)piperidin-1-yl)-5-(4-(morpholine-4-carbonyl)phenylamino)-1,2,4-triazine-6-carboxamide], the negative logarithm of the IC50 (pIC50) under setting [1] was 7.00 to 8.00.
